The text below walks through data of article PMC10674851, “Discovery and Characterization of a Dual-Function Peptide Derived from Bitter Gourd Seed Protein Using Two Orthogonal Bioassay-Guided Fractionations Coupled with In Silico Analysis” (Pharmaceuticals, 2023).

No end group written: not given here.

As a reminder, the IC50 is the concentration at which inhibition is half-maximal.

Series [1] concerns the target T1, angiotensin-I-converting enzyme (ACE) from rabbit lungs (Oryctolagus cuniculus, UniProt P12822).
T1 construct: angiotensin-I-converting enzyme (ACE) from rabbit lungs; purchased Sigma-Aldrich Co. (Saint Louis, MO, USA); host or cells: rabbit lung tissue
T1 sequence (P12822 34-1310): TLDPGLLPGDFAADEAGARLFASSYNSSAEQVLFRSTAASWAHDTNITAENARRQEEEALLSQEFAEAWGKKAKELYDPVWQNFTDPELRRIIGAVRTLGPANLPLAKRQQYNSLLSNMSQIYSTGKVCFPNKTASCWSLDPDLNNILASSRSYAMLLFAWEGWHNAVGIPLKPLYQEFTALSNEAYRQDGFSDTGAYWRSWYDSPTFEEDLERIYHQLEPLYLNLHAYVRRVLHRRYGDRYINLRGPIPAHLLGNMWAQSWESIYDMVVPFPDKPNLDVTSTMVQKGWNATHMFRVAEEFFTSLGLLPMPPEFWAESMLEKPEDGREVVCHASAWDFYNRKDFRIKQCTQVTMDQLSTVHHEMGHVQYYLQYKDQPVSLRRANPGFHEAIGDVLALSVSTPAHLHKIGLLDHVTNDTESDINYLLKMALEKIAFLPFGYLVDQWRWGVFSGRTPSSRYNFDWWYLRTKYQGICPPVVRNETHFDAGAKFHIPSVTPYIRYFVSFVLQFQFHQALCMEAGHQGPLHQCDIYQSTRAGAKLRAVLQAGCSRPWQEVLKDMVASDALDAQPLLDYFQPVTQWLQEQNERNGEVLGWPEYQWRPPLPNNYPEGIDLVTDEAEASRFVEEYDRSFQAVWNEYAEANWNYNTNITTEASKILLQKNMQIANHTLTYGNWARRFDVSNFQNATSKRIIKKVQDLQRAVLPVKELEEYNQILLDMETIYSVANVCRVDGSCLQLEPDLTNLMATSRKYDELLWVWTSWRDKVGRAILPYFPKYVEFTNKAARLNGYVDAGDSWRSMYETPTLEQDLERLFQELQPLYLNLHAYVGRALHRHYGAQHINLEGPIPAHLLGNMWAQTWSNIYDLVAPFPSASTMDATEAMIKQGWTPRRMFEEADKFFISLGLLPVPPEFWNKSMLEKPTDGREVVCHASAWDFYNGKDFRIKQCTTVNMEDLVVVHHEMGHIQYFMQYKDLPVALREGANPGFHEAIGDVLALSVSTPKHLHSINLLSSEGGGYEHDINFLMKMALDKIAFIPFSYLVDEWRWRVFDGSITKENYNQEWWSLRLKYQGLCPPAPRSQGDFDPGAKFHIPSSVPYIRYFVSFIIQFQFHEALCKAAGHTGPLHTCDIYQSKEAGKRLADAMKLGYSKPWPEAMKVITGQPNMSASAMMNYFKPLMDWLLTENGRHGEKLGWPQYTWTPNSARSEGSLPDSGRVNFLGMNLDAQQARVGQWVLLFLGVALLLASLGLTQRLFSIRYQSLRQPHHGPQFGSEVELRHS
Put plainly: ACE inhibitory (ACEI) activity assay, HHL substrate, hippuric acid by RP-HPLC. The note with it: synthetic AW6, seven logarithmic concentrations, non-linear interpolation; mean ± SD, triplicate. Type of series: biochemical.
Method: The ACEI activity was studied according to Cushman and Cheung [43], with a few modifications. First, 10 µL of the testing sample was premixed with 30 µL of hippuryl–histidine–leucine (HHL) and incubated at 37 °C for 5 min. Then, 20 µL of ACE (0.05 mU/µL) was added. Afterward, the reaction was held statically at 37 °C for 30 min and continued with shaking at 200 rpm for another 30 min. Then, 60 µL of 1 N hydrogen chloride was used to quench the reaction, and 10 µL of 0.25 µg/µL ferulic acid was mixed for an internal standard. […] The area under the curve of hippuric acid (HA) was observed using UV–Vis RP-HPLC at a wavelength of 228 nm, 1 mL/min steady flow rate, and 15 min of isocratic elution (26% ACN with 0.1% TFA in deionized water). The inhibitory activity of ACE was determined using the following equation:(2) ACE inhibitory activity %=1−HAinhibitor/HAno inhibitor×100%,
The HA(inhibitor) and HA(no inhibitor) were the areas under the curve of the hippuric acid acquired in the presence and absence of an inhibitor. The half-maximal inhibitory concentration of ACE inhibition (ACEI IC50) was calculated using a non-linear interpolation constructed with a minimum of six logarithmic concentrations of the testing sample.

Series [2] deals with T2, recombinant human dipeptidyl peptidase-IV (DPP4) (Homo sapiens, UniProt P27487).
T2 construct: purchased Sigma-Aldrich Co. (Saint Louis, MO, USA)
T2 sequence (P27487 whole entry): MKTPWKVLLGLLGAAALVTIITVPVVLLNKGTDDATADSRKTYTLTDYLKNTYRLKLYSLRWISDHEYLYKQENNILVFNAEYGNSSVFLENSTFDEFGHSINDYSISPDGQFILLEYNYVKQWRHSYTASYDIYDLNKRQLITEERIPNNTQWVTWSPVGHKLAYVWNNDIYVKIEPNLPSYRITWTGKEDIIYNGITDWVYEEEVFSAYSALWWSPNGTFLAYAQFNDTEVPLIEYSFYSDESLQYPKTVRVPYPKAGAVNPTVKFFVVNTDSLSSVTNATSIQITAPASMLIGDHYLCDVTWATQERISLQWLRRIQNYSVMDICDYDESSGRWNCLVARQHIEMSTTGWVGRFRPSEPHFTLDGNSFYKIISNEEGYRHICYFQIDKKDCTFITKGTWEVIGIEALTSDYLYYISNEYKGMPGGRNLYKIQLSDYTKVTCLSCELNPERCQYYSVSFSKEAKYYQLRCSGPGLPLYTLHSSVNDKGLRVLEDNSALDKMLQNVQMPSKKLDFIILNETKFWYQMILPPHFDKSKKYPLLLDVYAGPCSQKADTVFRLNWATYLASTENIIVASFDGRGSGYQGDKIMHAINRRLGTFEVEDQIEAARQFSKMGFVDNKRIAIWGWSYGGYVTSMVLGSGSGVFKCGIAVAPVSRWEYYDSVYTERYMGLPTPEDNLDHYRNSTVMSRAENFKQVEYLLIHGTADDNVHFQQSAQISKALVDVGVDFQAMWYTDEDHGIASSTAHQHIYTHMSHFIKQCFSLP
Put plainly: DPP4 inhibitory (DPP4I) activity assay, GP-pNA substrate, absorbance 405 nm. The format is biochemical. The following applies: seven logarithmic concentrations, non-linear interpolation; mean ± SD, triplicate. Here is the method:
The DPP4 inhibitory activity was determined as described by Nong, N. T. P. et al., with a few modifications. The testing samples, GP-pNA, linagliptin, and DPP4 were dissolved in 0.1 M Tris-HCl buffer, pH 8.0. Briefly, 25 µL of the testing sample was premixed with 25 µL of 1.6 mM GP-pNA and incubated at 37 °C for 10 min. Then, 50 µL of DPP4 (0.5 U/µL) was added. The reaction was continued for 60 min at 37 °C. The enzymatic reaction was quenched by adding 100 µL of 1 M sodium acetate, pH 4.0. The absorbance of pNA, as a product of the DPP4 and GP-pNA reactions, was monitored using a PowerWave XS (Biotek®, Winooski, VT, USA) 96-well microplate reader at a wavelength of 405nm. DPP4 inhibitory activity was calculated by the following equation:(3) DPP4 inhibitory activity %=1−pNAinhibitor/pNA no inhibitor×100%,
The pNA(inhibitor) and pNA(no inhibitor) were the absorbances of the pNA (λ = 405 nm) acquired in the presence and absence of an inhibitor, respectively. The half-maximal inhibitory concentration of DPP4 inhibition (DPP4I IC50) value was calculated using a non-linear interpolation for at least six logarithmic concentrations of the inhibitor.

For series [3] the following is noted: in vivo, cited from earlier work. The text has this:
Simultaneously, ACE2, a homologue of ACE, counteracts the vasoconstrictor effects by converting Ang-II into Ang 1–7 (a vasodilator). ACE2 also transforms Ang-I into Ang 1–9, and ACE hydrolyzes Ang 1–9 into Ang 1–7, resulting in a vasodilation effect. However, Ang 1–7 has a short half-life of only half an hour in the human body, and i ...

For the substance APLVSW [AW6, APLVSW], the IC50 in series [1] worked out at 9.6 ± 0.3 µM; in series [2], 145 ± 4.4 µM.

“Ang 1–7: vasodilator formed from Ang-II by ACE2”: the half-life entry in series [3] (human) is listed as “half an hour”. Besides, the “time of peak concentration in plasma” value in series [3] is reported as “one hour”.
